Laboratory results from patent US20110028444A1, “PHARMACEUTICALLY ACCEPTABLE SALTS OF ANTI-INFECTION QUINOLONE COMPOUNDS” (priority 2008, published 2011).
Converted amounts (≈) assume the structure as drawn.

Tests used:
Assay type in all cases: cell-based
Pseudomonas aeruginosa = assay: In-vitro antibacterial test, agar dilution MIC; conditions: agar dilution; for MIC: Pseudomonas aeruginosa, read-out: In-vitro MIC
Description: (§4) The test bacterial strains were the standard quality control test strains of Klebsiella pneumoniae strains (Strains No. CMCC 46114-8), Pseudomonas aeruginosa (Strains No. ATCC 27853), Escherichia coli (Strains No. ATCC25922), and Staphylococcus aureus cocci (Strains No. ATCC25925). Other bacteria included those isolated from sputum, throat swab or urine of patients with acute bacterial respiratory tract infection or urinary tract infection and identified by the hospitals.
(§5) HCl levofloxacin injection and NaCl ciprofloxacin lactate injection were diluted with sterilized distilled water to a concentration of 1920 μg/mL.

Escherichia coli = assay: In-vitro antibacterial test, agar dilution MIC; conditions: agar dilution; for MIC: Escherichia coli, read-out: In-vitro MIC
Description: as §4, §5

Staphylococcus aureus = assay: In-vitro antibacterial test, agar dilution MIC; conditions: agar dilution; for MIC: Staphylococcus aureus, read-out: In-vitro MIC
Description: as §4, §5

[1] = test system: Klebsiella pneumoniae, Pseudomonas aeruginosa, Staphylococcus aureus, Escherichia coli, Enterococcus faecalis, Streptococcus pneumoniae, Enterobacter cloacae …; assay: In-vitro antibacterial tests, summary over the tested bacteria; conditions: for antibacterial activity (in words): against the eight tested bacteria
Protocol: (§1) Test method: the agar dilution method was used for the minimum inhibitory concentration (MIC) determination. The antibacterial chemicals were mixed with given amounts of agar in various concentrations and the mixtures were made into solid plates. Each plate had the antibacterial concentration two times higher than the next plate. Bacteria species were then added to the surface of the plates, cultured, and observed for their growth.
(§2) Other bacteria included those isolated from sputum, throat swab or urine of patients with acute bacterial respiratory tract infection or urinary tract infection and identified by the hospitals.
(§3) (S)-6-fluoro-1-methyl-4-oxo-7-(1-piperazinyl)-1H,4H-[1,3]thiazeto[3,2-a]quino line-3-carboxylic acid lactate and other test samples, equivalent to 96 mg of ulifloxacin, were dissolved in sterilized distilled water to make up 50 mL of each solution.

Klebsiella pneumoniae = assay: In-vitro antibacterial test, agar dilution MIC; conditions: Klebsiella pneumoniae
Description: as §4, §5

Streptococcus pneumoniae = assay: In-vitro antibacterial test, agar dilution MIC; conditions: agar dilution; for MIC: Streptococcus pneumoniae, read-out: In-vitro MIC
Protocol: as §1, §2, §3

Enterobacter cloacae = assay: In-vitro antibacterial test, agar dilution MIC; conditions: agar dilution, read-out: In-vitro MIC
Description: as §4, §5

| Compound | In-vitro MIC (Pseudomonas aeruginosa) [µg/mL] | In-vitro MIC (Escherichia coli) [µg/mL] | In-vitro MIC (Staphylococcus aureus) [µg/mL] | antibacterial activity (in words) [1] | MIC (Pseudomonas aeruginosa) [µg/mL] | MIC (Escherichia coli) [µg/mL] | MIC (Staphylococcus aureus) [µg/mL] | In-vitro MIC (Streptococcus pneumoniae) [µg/mL] | other results |
| --- | --- | --- | --- | --- | --- | --- | --- | --- | --- |
| (S)-6-fluoro-1-methyl-4-oxo-7-(1-piperazinyl)-1H,4H-[1,3]thiazeto[3,2-a]quinoline-3-carboxylic acid aspartate [Compound 7] | 0.25 | 0.02 | 0.25 | relatively strong antibacterial activity |  |  |  |  |  |
| C[C@H]1COc2c(N3CCN(C)CC3)c(F)cc3c(=O)c(C(=O)O)cn1c23 [Levofloxacin, reference compound] |  |  |  |  | 2 (≈ 5.53 µM) | 0.0313 (≈ 0.0866 µM) | 0.5 (≈ 1.38 µM) |  | MIC (Klebsiella pneumoniae): 0.0125 µg/mL (≈ 0.0346 µM) |
| O=C(O)c1cn(C2CC2)c2cc(N3CCNCC3)c(F)cc2c1=O [Ciprofloxacin, reference compound] |  |  |  |  | 0.5 (≈ 1.51 µM) | 0.0313 (≈ 0.0945 µM) | 0.5 to 1 (≈ 1.51 to 3.02 µM) |  | MIC (Klebsiella pneumoniae): 0.0313 to 0.0625 µg/mL (≈ 0.0945 to 0.189 µM) |
| (S)-6-fluoro-1-methyl-4-oxo-7-(1-piperazinyl)-1H,4H-[1,3]thiazeto[3,2-a]quinoline-3-carboxylic acid glutamate [Compound 8] |  | 0.01 | 0.25 | relatively strong antibacterial activity |  |  |  | 0.125 |  |
| (R)-6-fluoro-1-methyl-4-oxo-7-(1-piperazinyl)-1H,4H-[1,3]thiazeto[3,2-a]quinoline-3-carboxylic acid aspartate [Compound 11] | 1 | 0.25 | 2 |  |  |  |  |  |  |
| (±)-6-fluoro-1-methyl-4-oxo-7-(1-piperazinyl)-1H,4H-[1,3]thiazeto[3,2-a]quinoline-3-carboxylic acid glutamate [Ulifloxaci glutamate (±), reference compound] |  | 0.125 | 0.5 |  |  |  |  | 0.2 |  |
| C[C@@H]1Sc2c(C(=O)O)c(=O)c3cc(F)c(N4CCNCC4)cc3n21 [Compound 2, (S)-6-fluoro-1-methyl-4-oxo-7-(1-piperazinyl)-1H,4H-[1,3]thiazeto[3,2-a]quinoline-3-carboxylic acid] |  |  |  | relatively strong antibacterial activity | 0.177 (≈ 0.507 µM) | 0.0125 (≈ 0.0358 µM) | 0.177 (≈ 0.507 µM) |  | MIC (Streptococcus pneumoniae): 0.025 µg/mL (≈ 0.0716 µM); antibacterial activity relative to R-ulifloxacin [1]: 3 to 10 times; antibacterial activity relative to racemic ulifloxacin [1]: two or more times; MIC (Enterobacter cloacae): 0.5 µg/mL (≈ 1.43 µM) |
| (R)-6-fluoro-1-methyl-4-oxo-7-(1-piperazinyl)-1H,4H-[1,3]thiazeto[3,2-a]quinoline-3-carboxylic acid glutamate [Compound 12] |  | 0.5 | 2 |  |  |  |  | 0.5 |  |
| (±)-6-fluoro-1-methyl-4-oxo-7-(1-piperazinyl)-1H,4H-[1,3]thiazeto[3,2-a]quino line-3-carboxylic acid aspartate [Ulifloxaci aspartate (±), reference compound] | 0.5 | 0.1 | 0.5 |  |  |  |  |  |  |
| C[C@H]1Sc2c(C(=O)O)c(=O)c3cc(F)c(N4CCNCC4)cc3n21 [Compound 3, (R)-6-fluoro-1-methyl-4-oxo-7-(1-piperazinyl)-1H,4H-[1,3]thiazeto[3,2-a]quinoline-3-carboxylic acid] |  |  |  |  | 2 (≈ 5.72 µM) | 0.225 (≈ 0.644 µM) | 2.83 (≈ 8.09 µM) |  | MIC (Streptococcus pneumoniae): 0.25 µg/mL (≈ 0.716 µM); MIC (Enterobacter cloacae): 4 µg/mL (≈ 11.4 µM) |
